Patent publication US20060235076A1, “Medicinal composition for treating infection with drug-resistant staphylococcus aureus” (priority 2003, published 2006)
≈ marks a conversion by molar mass, not a printed value. Where two headings read alike, the source gives them in different places.

System: MRSA and MSSA
Test: Antibacterial activity of gallic acid, various gallates and multivalent phenol derivatives alone (agar plate dilution method, MIC)
Assay type: cell-based, Staphylococcus aureus
Settings: Staphylococcus aureus
Experimental: According to the agar plate dilution method defined by Japan Society of Chemotherapy, MIC (Minimum inhibitory concentration) was determined. CAMHA was prepared by adding 50 mg/l of Ca-ion, 25 mg/l of Mg-ion, and 2% of NaCl to Mueller-Hinton II Agar (MHA), and it was used as a medium for use in the measurement of sensitivity. The bacterial liquid was incubated at 37° C. overnight and diluted to 10^6 CFU/ml with saline.
MIC for gallic acid, various gallates and multivalent phenol derivatives alone with MRSA and MSSA were determined as described in experiment 2.

[1] = COL, compound alone, read-out: MIC
[2] = MRSA #1, compound alone, read-out: MIC
[3] = MRSA #2, compound alone, read-out: MIC
[4] = MRSA #3, compound alone, read-out: MIC
[5] = MRSA #4, compound alone, read-out: MIC
[6] = MRSA #5, compound alone, read-out: MIC
[7] = MRSA #6, compound alone, read-out: MIC
[8] = MRSA #7, compound alone, read-out: MIC
[9] = MRSA #8, compound alone, read-out: MIC
[10] = MRSA #9, compound alone, read-out: MIC
[11] = MRSA #10, compound alone, read-out: MIC
[12] = MRSA #12, compound alone, read-out: MIC
[13] = MRSA #16, compound alone, read-out: MIC
[14] = MRSA #17, compound alone, read-out: MIC
[15] = MRSA #18, compound alone, read-out: MIC
[16] = MRSA #20, compound alone, read-out: MIC
[17] = MRSA #21, compound alone, read-out: MIC
[18] = MRSA #22, compound alone, read-out: MIC
[19] = MRSA #24, compound alone, read-out: MIC
[20] = MSSA #1003, compound alone, read-out: MIC
[21] = MSSA #1010, compound alone, read-out: MIC
[22] = MSSA #1020, compound alone, read-out: MIC
[23] = MSSA #1023, compound alone, read-out: MIC
[24] = MSSA #1029, compound alone, read-out: MIC
[25] = MSSA #1032, compound alone, read-out: MIC

Structure (SMILES)	MIC [1] [µg/mL]	MIC [2] [µg/mL]	MIC [3] [µg/mL]	MIC [4] [µg/mL]	MIC [5] [µg/mL]	MIC [6] [µg/mL]	MIC [7] [µg/mL]	MIC [8] [µg/mL]	MIC [9] [µg/mL]	MIC [10] [µg/mL]	MIC [11] [µg/mL]	MIC [12] [µg/mL]	MIC [13] [µg/mL]	MIC [14] [µg/mL]	MIC [15] [µg/mL]	MIC [16] [µg/mL]	MIC [17] [µg/mL]	MIC [18] [µg/mL]	MIC [19] [µg/mL]	MIC [20] [µg/mL]	other results
CC(=O)c1ccc(O)c(O)c1O [2′,3′,4′-trihydroxyacetophenone]	62.5 (≈ 372 µM)	62.5 (≈ 372 µM)	62.5 (≈ 372 µM)	62.5 (≈ 372 µM)	62.5 (≈ 372 µM)	62.5 (≈ 372 µM)	31.3 (≈ 186 µM)	62.5 (≈ 372 µM)	62.5 (≈ 372 µM)	62.5 (≈ 372 µM)	31.3 (≈ 186 µM)	62.5 (≈ 372 µM)	62.5 (≈ 372 µM)	62.5 (≈ 372 µM)	62.5 (≈ 372 µM)	62.5 (≈ 372 µM)	62.5 (≈ 372 µM)	62.5 (≈ 372 µM)	62.5 (≈ 372 µM)	62.5 (≈ 372 µM)	MIC (ATCC 6538 / MRSA / MSSA, ATCC6538, compound alone, read-out: MIC): 62.5 µg/mL (≈ 372 µM); MIC [21]: 62.5 µg/mL (≈ 372 µM); MIC [22]: 62.5 µg/mL (≈ 372 µM); MIC [23]: 31.3 µg/mL (≈ 186 µM); MIC [24]: 31.3 µg/mL (≈ 186 µM); MIC [25]: 62.5 µg/mL (≈ 372 µM); MIC50 (over all strains of Table 3-2, compound alone, read-out: MIC50): 62.5 µg/mL (≈ 372 µM)
CC(C)CCOC(=O)c1ccc(O)cc1 [Isoamyl 4-hydroxybenzoate]	62.5 (≈ 300 µM)	62.5 (≈ 300 µM)	62.5 (≈ 300 µM)	62.5 (≈ 300 µM)	62.5 (≈ 300 µM)	62.5 (≈ 300 µM)	62.5 (≈ 300 µM)	62.5 (≈ 300 µM)	62.5 (≈ 300 µM)	62.5 (≈ 300 µM)	31.3 (≈ 150 µM)	62.5 (≈ 300 µM)	62.5 (≈ 300 µM)	62.5 (≈ 300 µM)	62.5 (≈ 300 µM)	62.5 (≈ 300 µM)	62.5 (≈ 300 µM)	62.5 (≈ 300 µM)	62.5 (≈ 300 µM)	62.5 (≈ 300 µM)	MIC50: 62.5 µg/mL (≈ 300 µM); MIC (ATCC 6538 / MRSA / MSSA): 62.5 µg/mL (≈ 300 µM); MIC [21]: 62.5 µg/mL (≈ 300 µM); MIC [22]: 62.5 µg/mL (≈ 300 µM); MIC [23]: 62.5 µg/mL (≈ 300 µM); MIC [24]: 62.5 µg/mL (≈ 300 µM); MIC [25]: 62.5 µg/mL (≈ 300 µM)
CCCCCOC(=O)c1ccc(O)cc1 [n-Amyl 4-hydroxybenzoate]	62.5 (≈ 300 µM)	62.5 (≈ 300 µM)	62.5 (≈ 300 µM)	62.5 (≈ 300 µM)	62.5 (≈ 300 µM)	62.5 (≈ 300 µM)	31.3 (≈ 150 µM)	62.5 (≈ 300 µM)	31.3 (≈ 150 µM)	31.3 (≈ 150 µM)	62.5 (≈ 300 µM)	62.5 (≈ 300 µM)	62.5 (≈ 300 µM)	62.5 (≈ 300 µM)	62.5 (≈ 300 µM)	62.5 (≈ 300 µM)	62.5 (≈ 300 µM)	62.5 (≈ 300 µM)	62.5 (≈ 300 µM)	62.5 (≈ 300 µM)	MIC50: 62.5 µg/mL (≈ 300 µM); MIC (ATCC 6538 / MRSA / MSSA): 62.5 µg/mL (≈ 300 µM); MIC [21]: 62.5 µg/mL (≈ 300 µM); MIC [22]: 62.5 µg/mL (≈ 300 µM); MIC [23]: 31.3 µg/mL (≈ 150 µM); MIC [24]: 62.5 µg/mL (≈ 300 µM); MIC [25]: 62.5 µg/mL (≈ 300 µM)
